This note sets out measurements from US20070197525A1, “Novel tetracyclic tetrahydrofuran derivatives” (priority 2004, published 2007).

Where only a bound is given, the exact number is not on record here.

The nature of series [1]: Metabolic stability assay using human liver microsomes. The format is in vitro ADME. The following applies: 5.0 μM test compound, 15 min incubation, LC-MS. Here is the method: Compounds according to the invention were tested for metabolic stability in the following assay using human liver microsomes in comparison with prior art compound A, referred to above.
Sub-cellular tissue preparations are made by centrifugal separation after mechanical homogenization of tissue. Tissue is rinsed in ice cold 0.1 M Tris-HCl (pH 7.4) buffer to wash excess blood. Tissue is then blotted dry, weighed and chopped coarsely using surgical scissors. The tissue pieces are homogenized in 3 volumes of ice cold 0.1 M phosphate buffer (pH 7.4) for 7×10 sec. The vessel is kept in/on ice during the homogenization process. Tissue homogenates are centrifuged at 9000×g for 20 minutes at 4° C. The resulting supernatant can be stored at −80° C. and is designated ‘S9’.
The S9-fraction may be centrifuged at 100.000×g for 60 minutes (4° C.). The resulting supernatant is aspirated, aliquoted and designated ‘cytosol’. The pellet is re-suspended in 0.1 M phosphate buffer (pH 7.4) in a final volume of 1 mL per 0.5 g original tissue weight and designated ‘microsomes’.
The incubation is carried out in the following system:
• The reaction is started by the addition of 0.8 mM NADP and incubated for 15 min. • Total assay volume is 250 microliters. • The reaction is stopped by the addition of 2 volumes of DMSO (or acetonitrile). • The samples are centrifuged (10 min, 900×g) and supernatant stored at room temperature (when stopped with DMSO; no longer than 24 h) or −20° C. (when stopped with acetonitrile; no longer than 24 h) before analysis. • The supernatant material is then analysed by LC-MS to determine the extent of metabolism of the test compound in the microsomes
For orientation: Liver microsomes are vesicles of endoplasmic reticulum, rich in cytochrome P450 enzymes.

In series [2] the target is T1, human cloned 5-HT2A receptor (Homo sapiens, UniProt P28223).
T1 construct: expressed in transfected cells; host or cells: L929 cells
T1 sequence (P28223 whole entry): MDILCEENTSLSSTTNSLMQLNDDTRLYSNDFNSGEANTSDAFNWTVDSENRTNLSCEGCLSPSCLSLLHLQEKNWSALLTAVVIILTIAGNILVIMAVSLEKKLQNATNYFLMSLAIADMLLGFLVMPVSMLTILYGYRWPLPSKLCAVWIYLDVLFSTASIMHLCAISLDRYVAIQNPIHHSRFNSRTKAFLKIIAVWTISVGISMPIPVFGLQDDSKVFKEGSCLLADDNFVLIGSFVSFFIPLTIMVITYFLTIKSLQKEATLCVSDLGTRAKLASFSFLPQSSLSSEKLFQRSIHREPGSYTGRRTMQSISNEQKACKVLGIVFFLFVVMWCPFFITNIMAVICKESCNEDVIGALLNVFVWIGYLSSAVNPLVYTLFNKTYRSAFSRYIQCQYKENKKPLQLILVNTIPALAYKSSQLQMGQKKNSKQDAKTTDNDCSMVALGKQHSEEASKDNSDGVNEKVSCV
Kind of series: In vitro binding affinity for 5-HT2A receptor (radioligand binding). The following applies: human cloned 5-HT2A receptor expressed in L929 cells, [125I]R91150 radioligand; read-out: 5-HT2A (pIC50) (converted). Here is the method: (§1) The interaction of the compounds of Formula (I) with 5-HT2A and 5-HT2C receptors was assessed in in vitro radioligand binding experiments. In general, a low concentration of a radioligand with a high binding affinity for the receptor is incubated with a sample of a tissue preparation enriched in a particular receptor (1 to 5 mg tissue) in a buffered medium (0.2 to 5 ml). During the incubation, the radioligands bind to the receptor. When equilibrium of binding is reached, the receptor bound radioactivity is separated from the non-bound radioactivity, and the receptor bound activity is counted. The interaction of the test compounds with the receptors is assessed in competition binding experiments. Various concentrations of the test compound are added to the incubation mixture containing the tissue preparation and the radioligand. Binding of the radioligand will be inhibited by the test compound in proportion to its binding affinity and its concentration. The affinities of the compounds for the 5-HT2 receptors were measured by means of radioligand binding studies conducted with: (a) human cloned 5-HT2A receptor, expressed in L929 cells using [^125I]R91150 as radioligand and (b) human cloned 5-HT2C receptor, expressed in CHO cells using [^3H]mesulergine as radioligand.

In series [3] the target is T2, human cloned 5-HT2C receptor (Homo sapiens, UniProt P28335).
T2 construct: expressed in transfected cells; host or cells: CHO cells
T2 sequence (P28335 33-458): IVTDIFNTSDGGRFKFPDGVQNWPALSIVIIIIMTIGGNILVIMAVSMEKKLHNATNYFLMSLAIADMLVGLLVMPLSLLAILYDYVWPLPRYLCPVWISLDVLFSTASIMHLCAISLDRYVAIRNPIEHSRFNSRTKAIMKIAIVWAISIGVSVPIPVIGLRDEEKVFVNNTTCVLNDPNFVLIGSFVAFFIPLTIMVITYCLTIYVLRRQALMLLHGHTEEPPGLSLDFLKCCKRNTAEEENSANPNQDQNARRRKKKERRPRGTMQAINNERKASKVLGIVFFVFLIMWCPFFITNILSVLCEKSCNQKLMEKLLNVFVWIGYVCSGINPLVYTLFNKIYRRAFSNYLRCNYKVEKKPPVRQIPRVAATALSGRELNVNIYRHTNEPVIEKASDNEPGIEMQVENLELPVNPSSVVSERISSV
Briefly: In vitro binding affinity for 5-HT2C receptor (radioligand binding). Conditions: human cloned 5-HT2C receptor expressed in CHO cells, [3H]mesulergine radioligand; read-out: 5-HT2C (pIC50) (converted). Here is the method:
as §1

Series [4] deals with T3, norepinephrine transporter (NET) (Rattus norvegicus, UniProt Q63380).
T3 construct: Cortex from rat brain was collected and homogenised; from tissue; host or cells: rat brain cortex membranes
T3 sequence (Q63380 1-617): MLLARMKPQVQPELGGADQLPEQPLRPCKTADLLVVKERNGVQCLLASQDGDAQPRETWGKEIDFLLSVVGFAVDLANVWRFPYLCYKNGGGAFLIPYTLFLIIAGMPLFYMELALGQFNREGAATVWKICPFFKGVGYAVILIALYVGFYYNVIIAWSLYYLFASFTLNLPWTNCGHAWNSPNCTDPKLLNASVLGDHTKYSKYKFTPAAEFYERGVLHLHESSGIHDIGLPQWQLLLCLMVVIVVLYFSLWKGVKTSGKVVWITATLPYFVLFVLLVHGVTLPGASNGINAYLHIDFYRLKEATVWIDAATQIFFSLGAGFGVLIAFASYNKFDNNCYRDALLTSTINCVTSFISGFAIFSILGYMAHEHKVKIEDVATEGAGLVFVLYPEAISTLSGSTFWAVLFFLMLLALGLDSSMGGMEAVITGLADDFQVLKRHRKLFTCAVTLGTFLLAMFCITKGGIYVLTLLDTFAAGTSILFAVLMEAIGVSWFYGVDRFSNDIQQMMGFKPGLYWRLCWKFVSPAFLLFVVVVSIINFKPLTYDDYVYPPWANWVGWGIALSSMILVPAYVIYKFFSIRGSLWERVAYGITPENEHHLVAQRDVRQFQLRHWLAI
Briefly: In vitro assay for NET inhibition (radioligand binding, rat brain cortex). The following applies: rat brain cortex membranes, [3H]Nixosetine radioligand; read-out: NET-inhibition (pIC50) (converted). Here is the method: Cortex from rat brain was collected and homogenised using an Ultra-Turrax T25 and a Dual homogeniser in ice-cold homogenising buffer containing Tris, NaCl and KCl (50 mM, 120 mM and 5 mM, respectively, pH 7.4) prior to dilution to an appropriate protein concentration optimised for specific and non-specific binding. […] Membrane-bound activity was detected by filtration through a Packard Filtermate harvester onto GF/B Unifilterplates, washed with ice-cold Tris-HCl buffer, containing NaCl and KCl (50 mM, 120 mM and 4 mM; pH 7.4; 6×0.5 ml). Filters were allowed to dry for 24 h before adding scintillation fluid. Scintillation fluid was allowed to saturate filters for 24 h before counting in a Topcount scintillation counter. Percentage specific bound and competition binding curves were calculated using S-Plus software (Insightful).

The target of series [5] is T4, human dopamine D2L receptor (Homo sapiens, UniProt P14416).
T4 construct: expressed in transfected cells; host or cells: CHO cells (frozen membranes)
T4 sequence (P14416 whole entry): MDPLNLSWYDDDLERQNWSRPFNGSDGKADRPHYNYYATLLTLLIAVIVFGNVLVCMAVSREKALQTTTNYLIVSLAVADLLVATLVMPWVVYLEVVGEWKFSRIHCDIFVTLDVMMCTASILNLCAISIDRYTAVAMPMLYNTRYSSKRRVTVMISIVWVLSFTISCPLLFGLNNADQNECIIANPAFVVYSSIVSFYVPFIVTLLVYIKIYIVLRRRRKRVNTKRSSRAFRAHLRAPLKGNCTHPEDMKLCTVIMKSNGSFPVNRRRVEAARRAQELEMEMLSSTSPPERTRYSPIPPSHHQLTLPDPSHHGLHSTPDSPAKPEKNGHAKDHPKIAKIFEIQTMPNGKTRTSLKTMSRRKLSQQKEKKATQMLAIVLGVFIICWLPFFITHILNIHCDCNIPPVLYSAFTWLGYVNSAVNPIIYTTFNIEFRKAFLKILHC
Briefly: In vitro assay for D2 receptor binding. The following applies: for IC50: membranes of human D2L-transfected CHO cells, [3H]Spiperone radioligand, read-out: D2 (pIC50) (converted); for D2/NET: ratio of D2 pIC50 to NET-inhibition pIC50. Here is the method: Frozen membranes of human dopamine D2L receptor-transfected CHO cells were thawed, briefly homogenised using an Ultra-Turrax T25 homogeniser and diluted in Tris-HCl assay buffer containing NaCl, CaCl2, MgCl2, KCl (50, 120, 2, 1, and 5 mM respectively, adjusted to pH 7.7 with HCl) to an appropriate protein concentration optimised for specific and non-specific binding. Radioligand [^3H]Spiperone (NEN, specific activity ˜70 Ci/mmol) was diluted in assay buffer at a concentration of 2 nmol/L. Prepared radioligand (50 μl), along with 50 μl of either the 10% DMSO control, Butaclamol (10^−6 mol/l final concentration), or compound of interest, was then incubated (30 min, 37° C.) with 400 μl of the prepared membrane solution. Membrane-bound activity was filtered through a Packard Filtermate harvester onto GF/B Unifilterplates and washed with ice-cold Tris-HCl buffer (50 mM; pH 7.7; 6×0.5 ml). Filters were allowed to dry before adding scintillation fluid and counting in a Topcount scintillation counter. Percentage specific bound and competition binding curves were calculated using S-Plus software (Insightful).

As to `CNCC1CC2c3ccccc3C(C)c3ccc(F)cc3C2O1` (single isomer, unassigned) [Compound 74], in series [1], the “% metabolised” value is 9%. Besides, the IC50 was 12.6 nM in series [2], 3.98 nM in series [3], 5.01 nM in series [4] and 631 nM in series [5]. For the same compound, in series [5], the D2/NET was determined as 0.74.
With `C=C1c2ccccc2[C@H]2C[C@H](CN(C)C)O[C@@H]2c2ccccc21` [Compound 25], the IC50 in series [2] is 12.6 nM; in series [3] it was 3.98 nM; in series [4] it was 12.6 nM; in series [5] it was 200 nM. For the same compound, the D2/NET in series [5] is reported as 0.85.
As to `C=C1c2ccccc2[C@H]2C[C@H](CN(C)C)O[C@@H]2c2cc(F)ccc21` [Compound 26], in series [1], the “% metabolised” value was 2.6%.
In the case of `CNC[C@H]1C[C@@H]2c3ccccc3[C@H](O)c3ccc(F)cc3[C@H]2O1` [Compound 34], the IC50 in series [2] was 31.6 nM; in series [3] it was 5.01 nM; in series [4], 20 nM; in series [5], more than 1000 nM. The D2/NET in series [5] was less than 0.77.
As to `CN(C)C[C@H]1C[C@@H]2c3ccccc3[C@](C)(O)c3ccc(F)cc3[C@H]2O1` [Compound 41], the “% metabolised” value in series [1] was found to be 2.25%. Moreover, the IC50 was 31.6 nM in series [2], 50.1 nM in series [3], 126 nM in series [4] and more than 1000 nM in series [5]. Also, the D2/NET in series [5] is on record as less than 0.87.
Take `CNC[C@H]1C[C@@H]2c3ccccc3[C@@H](OC(C)C)c3ccc(F)cc3[C@H]2O1` [Compound 63]: the IC50 in series [2] is 316 nM; in series [3], 100 nM; in series [4], 3980 nM; in series [5], more than 10000 nM. Also, in series [5], the D2/NET is reported as less than 0.92.
As to `C[C@@H]1c2ccccc2[C@H]2C[C@H](CN(C)C)O[C@@H]2c2cc(F)ccc21` [Compound 66], the “% metabolised” value in series [1] is given as 11.35%. Further, the IC50 in series [2] was 25.1 nM; in series [3], 3.98 nM; in series [4], 31.6 nM; in series [5], 316 nM. Further, the D2/NET in series [5] amounted to 0.86.
For the compound `NC[C@H]1C[C@@H]2c3ccccc3[C@@H](O)c3ccc(F)cc3[C@H]2O1` [Compound 104], the IC50 in series [2] was 12.6 nM; in series [3], 2.51 nM; in series [4] it was 200 nM; in series [5] it was 7940 nM. Moreover, the D2/NET in series [5] was 0.60.
`CCNC[C@H]1C[C@@H]2c3ccccc3[C@H](O)c3ccc(F)cc3[C@H]2O1` [Compound 107]: the IC50 in series [2] was 20 nM; in series [3], 6.31 nM; in series [4], 158 nM; in series [5] it was 1580 nM. In addition, in series [5], the D2/NET is reported as 0.86.
The corresponding values for `CCNC[C@H]1C[C@@H]2c3ccccc3[C@@H](OC)c3ccc(F)cc3[C@H]2O1` [Compound 110] are 1260 nM, 398 nM, 10 nM, more than 10000 nM and less than 0.62.
